In the supplement of paper PMC11208160:

Assay: recombinant barcode read abundance after kanamycin selection (control-corrected) (log10(CPM+1)); higher = more efficient recombination; sequences stand for … in AGTGCAGAGAAAATCGGCCAGTTTTCTCTGCCTGCAGTCCGCATGCCGT…AGATTTATGCAGCGGACTGCCTTTCTCCCAAAGTGATAAACCGGACAGTATCATGGACCGGTTTTCCCGGTAATCCGTATTTGCAAGGTTGGTTTCACT; site = the 11-nt target
How it was run: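 Pooled oligos, each joining a target to an IS621 bridge RNA target-binding loop, were cloned and co-electroporated with a donor plasmid into E. coli. Selective plates carried chloramphenicol/ampicillin/kanamycin and 0.1 mM IPTG, while chloramphenicol/ampicillin LB agar served as control, with two replicates of each. Recombination efficiency rests on averaged, control-corrected counts per million of barcodes at recombinant junctions, shown as log10(CPM+1).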
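Note: IS621 recombinase and bridge RNA in Escherichia coli cells.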

Row | Sequence | recombinant barcode read abundance (log10)
1 | GCTCGTACTTGGGTTCTAACCTGTTGCAT (site TCGCGTACTAT) | 0.0401
2 | GCTGAGACTTGGGTTCTAACCTGTTGCCG (site GATGAGACTCG) | 0.218
3 | GCTGAGACTTGGGTTCTAACCTGTTGCCG (site GCTGAGACTCG) | 2.53
4 | GCTGGACCTTGGGTTCTAACCTGTTGCAT (site GCTCGTCCTAT) | 0.0463
5 | GCTGGACCTTGGGTTCTAACCTGTTGCAT (site GCTGGACCTAT) | 2.18
6 | GCTGGCCCTTGGGTTCTAACCTGTTGCCT (site GATGGCCCTAG) | 0.0865
7 | GCTGGCCCTTGGGTTCTAACCTGTTGCCT (site GCTGGCCCTAG) | 1.18
8 | GCTGGCCCTTGGGTTCTAACCTGTTGCCT (site GGTGGCCCTAG) | 0.0479
9 | GCTGGCCCTTGGGTTCTAACCTGTTGCCT (site GTTGGCCCTAG) | 0.481
10 | GCTGGTCCTTGGGTTCTAACCTGTTGCCT (site GCAGGTCCTAG) | 0.311
11 | GCTGGTCCTTGGGTTCTAACCTGTTGCCT (site GCCGGTCCTAG) | 0.431
12 | GCTGGTCCTTGGGTTCTAACCTGTTGCCT (site GCGGGTCCTAG) | 0.205
13 | GCTGGTCCTTGGGTTCTAACCTGTTGCCT (site GCTGGTCCTAG) | 1.75
14 | GCTTAAACTTGGGTTCTAACCTGTTGCCT (site ATGGCCTCTTA) | 0.0724
15 | GCTTAAACTTGGGTTCTAACCTGTTGCCT (site GCTTAAACTAG) | 1.04
16 | GCTTCCACTTGGGTTCTAACCTGTTGCCT (site ACTTCCACTAG) | 0.074
17 | GCTTCCACTTGGGTTCTAACCTGTTGCCT (site CCTTCCACTAG) | 0.24
18 | GCTTCCACTTGGGTTCTAACCTGTTGCCT (site GCTTCCACTAG) | 0.381
19 | GCTTCCACTTGGGTTCTAACCTGTTGCCT (site TCTTCCACTAG) | 0.196
20 | GCTTCGTCTTGGGTTCTAACCTGTTGCCT (site GCATCGTCTAG) | 0.427
21 | GCTTCGTCTTGGGTTCTAACCTGTTGCCT (site GCCTCGTCTAG) | 0.129
22 | GCTTCGTCTTGGGTTCTAACCTGTTGCCT (site GCGTCGTCTAG) | 0.0292
23 | GCTTCGTCTTGGGTTCTAACCTGTTGCCT (site GCTTCGTCTAG) | 0.393
24 | GGAAAAGCTTGGGTTCTAACCTGTTGCTT (site GGAAAAGCTAA) | 0.268
25 | GGAAAAGCTTGGGTTCTAACCTGTTGCTT (site TCTTCGACTCT) | 0.153
26 | GGAACGACTTGGGTTCTAACCTGTTGCGT (site CTCCGAGCTGT) | 0.0623

Row | Sequence | recombinant barcode read abundance (log10)
27 | GGAACGACTTGGGTTCTAACCTGTTGCGT (site GGAACGACTAC) | 1.93
28 | GGACACTCTTGGGTTCTAACCTGTTGCCT (site GGACACTCTAG) | 2.75
29 | GGACACTCTTGGGTTCTAACCTGTTGCCT (site GGACACTCTTA) | 1.09
30 | GGACATTCTTGGGTTCTAACCTGTTGCAT (site GGACATTCTAT) | 0.872
31 | GGACATTCTTGGGTTCTAACCTGTTGCAT (site GTCCATTCTAT) | 0.0875
32 | GGACCTACTTGGGTTCTAACCTGTTGCCA (site GAACCTACTTG) | 0.0276
33 | GGACCTACTTGGGTTCTAACCTGTTGCCA (site GGACCTACTTG) | 0.483
34 | GGACGCTCTTGGGTTCTAACCTGTTGCCT (site GGACGCTCTAG) | 1.83
35 | GGACGCTCTTGGGTTCTAACCTGTTGCCT (site GGTCGCTCTAG) | 0.113
36 | GGACGGCCTTGGGTTCTAACCTGTTGCGT (site CTACGGCCTAC) | 0.152
37 | GGACGGCCTTGGGTTCTAACCTGTTGCGT (site GGACGGCCTAC) | 2.53
38 | GGACGGGCTTGGGTTCTAACCTGTTGCAG (site GAACGGGCTCC) | 0.0984
39 | GGACGGGCTTGGGTTCTAACCTGTTGCAG (site GGACGGGCTCT) | 2.48
40 | GGAGACGCTTGGGTTCTAACCTGTTGCCT (site GGAGAAGCTAG) | 0.344
41 | GGAGACGCTTGGGTTCTAACCTGTTGCCT (site GGAGACGCTAG) | 1.32
42 | GGAGACGCTTGGGTTCTAACCTGTTGCCT (site GGAGAGGCTAG) | 0.676
43 | GGAGACGCTTGGGTTCTAACCTGTTGCCT (site GGAGATGCTAG) | 0.235
44 | GGAGCACCTTGGGTTCTAACCTGTTGCCT (site GGAGCACCTAG) | 2.38
45 | GGAGCACCTTGGGTTCTAACCTGTTGCCT (site GGAGCAGCTAG) | 0.0718
46 | GGAGCGTCTTGGGTTCTAACCTGTTGCGT (site GGAGCGTCTAC) | 1.61
47 | GGAGCGTCTTGGGTTCTAACCTGTTGCGT (site GGCGCGTCTAT) | 0.299
48 | GGAGGGGCTTGGGTTCTAACCTGTTGCCT (site GGAGGGGCTAG) | 1.75
49 | GGAGGGGCTTGGGTTCTAACCTGTTGCCT (site TGAGGTGCTAG) | 0.0107
50 | GGAGTGACTTGGGTTCTAACCTGTTGCTT (site GGAGTGACTAA) | 0.979
51 | GGAGTGACTTGGGTTCTAACCTGTTGCTT (site GGAGTGACTTA) | 0.176
52 | GGATAGACTTGGGTTCTAACCTGTTGCGT (site GGATACACTAC) | 0.107

Row | Sequence | recombinant barcode read abundance (log10)
53 | GGATAGACTTGGGTTCTAACCTGTTGCGT (site GGATAGACTAC) | 1.95
54 | GGATAGCCTTGGGTTCTAACCTGTTGCCT (site AGATAGCCTAG) | 0.902
55 | GGATAGCCTTGGGTTCTAACCTGTTGCCT (site CGATAGCCTAG) | 0.0205
56 | GGATAGCCTTGGGTTCTAACCTGTTGCCT (site GGATAGCCTAG) | 1.71
57 | GGATAGCCTTGGGTTCTAACCTGTTGCCT (site TGATAGCCTAG) | 0.239
58 | GGATATCCTTGGGTTCTAACCTGTTGCCT (site GGATATCCTAG) | 0.645
59 | GGATATCCTTGGGTTCTAACCTGTTGCCT (site TGAAATCCTAG) | 0.114
60 | GGATCGTCTTGGGTTCTAACCTGTTGCCT (site GGATCGTCTAG) | 1.44
61 | GGATCGTCTTGGGTTCTAACCTGTTGCCT (site GGTTCCTCTAG) | 0.0567
62 | GGATTCTCTTGGGTTCTAACCTGTTGCCT (site GGACTCACTAG) | 0.0575
63 | GGATTCTCTTGGGTTCTAACCTGTTGCCT (site GGATTCTCTAG) | 1.83
64 | GGCAAGGCTTGGGTTCTAACCTGTTGCCT (site ACGGGTCCTCT) | 0.417
65 | GGCAAGGCTTGGGTTCTAACCTGTTGCCT (site GGCAAGGCTAG) | 0.0617
66 | GGCACCACTTGGGTTCTAACCTGTTGCGT (site GGCACCACTAC) | 1.58
67 | GGCACCACTTGGGTTCTAACCTGTTGCGT (site GGCACTACTAC) | 0.108
68 | GGCACTACTTGGGTTCTAACCTGTTGCGT (site GGCACCACTAC) | 0.661
69 | GGCACTACTTGGGTTCTAACCTGTTGCGT (site GGCACTACTAC) | 0.28
70 | GGCACTTCTTGGGTTCTAACCTGTTGCCT (site GGCACTTCTAG) | 0.188
71 | GGCACTTCTTGGGTTCTAACCTGTTGCCT (site GGCTCTTCTAG) | 0.136
72 | GGCATGTCTTGGGTTCTAACCTGTTGCCT (site GGCATGTCTAG) | 1.15
73 | GGCATGTCTTGGGTTCTAACCTGTTGCCT (site GGCTTGTCTAG) | 0.0534
74 | GGCCCGCCTTGGGTTCTAACCTGTTGCCT (site AGCCCGCCTAG) | 0.0411
75 | GGCCCGCCTTGGGTTCTAACCTGTTGCCT (site CGCCCGCCTAG) | 0.00686
76 | GGCCCGCCTTGGGTTCTAACCTGTTGCCT (site GGCCCGCCTAG) | 0.734
77 | GGCCCGCCTTGGGTTCTAACCTGTTGCCT (site TGCCCGCCTAG) | 0.0746
